Test results taken from US4372949A, “Treatment of cancer with carcinostatic and immunostimulating agent containing lysophospholipid and phospholipid” (Toyama Chemical Co., Ltd., priority 1979, dated 1983).

What was measured:
[1] = system: L-1210 leukemic cells; assay: Pre-administration effect to L-1210 (L-1210 allograft); type: in vivo, mice (ddN strain); conditions: i.p., 7 days pre-administration
Method: Each test compound was repeatedly administered (at a dose of 40 mg/kg as calculated in terms of L-lysolecithin) intraperitoneally to ddN strain mice (male, 6-week old) for a period of 7 days, and after one-week no-administration period, 1×10^6 L-1210 leukemic cells were inoculated intraperitoneally and the average number of survival days of the test animal was determined.

[2] = system: Lewis lung cancerous cells; assay: Inhibitory effect against metastasis of Lewis lung cancer; type: in vivo, mice (BDF1 strain); conditions: L-lysolecithin 40 mg/kg i.p., 10 days
Method: 1×10^6 Lewis lung cancerous cells were given intravenously to BDF1 strain (female, 13-week old) mice, and after 24 hours, L-lysolecithin (40 mg/kg) was administered intraperitoneally while a mixture of a fat emulsion (20 ml/kg) and L-lysolecithin (40 mg/kg) was administered intravenously, each for a period of 10 days repeatedly, and at the 11th day, the breast of each test mouse was cut open and the dry weight of the lung (mg mean ± S.E.) was measured. The inhibitory effect was judged by the ratio to the control group (T/C).

[3] = system: mice; assay: Acute toxicity; type: in vivo; conditions: female, intravenous injection
Excerpt: The results of measurement of acute toxicity on some typical compounds prepared according to this invention are shown in Table 9.
(Test animal: mice, female; intravenous injection)

[4] = Table 5, 40 mg/kg L-lysolecithin (No. 7: + 20 ml/kg fat emulsion)

L-lysolecithin
Average number of survival days ([1]; Table 4, 40 mg/kg as L-lysolecithin): > 21.0 days
Number of survival days (mean ± S.E.) [1, 4]: 21.0 days
Number of survivor for 21 days/Number of mice tested [1, 4]: 6/6
Dry lung weight (mean ± S.E.) [2]: 34.3 ± 1.6 mg
Increased weight (mean ± S.E.) [2]: 4.7 ± 1.6 mg
T/C ([2]; ratio to control group): 29.0%
LD50 [3]: 122 mg/kg
